Measured values: patent US20230122344A1, “ANTAGONISTS OF THE MUSCARINIC ACETYLCHOLINE RECEPTOR M4” (Vanderbilt University, priority 2019, published 2023)

Target: T1, Human M4 (Homo sapiens, UniProt P08173)
T1 construct: expressed in transfected cells; host or cells: CHO-K1 (ATCC), co-transfected with chimeric G protein Gqi5
T1 sequence (P08173 1-479): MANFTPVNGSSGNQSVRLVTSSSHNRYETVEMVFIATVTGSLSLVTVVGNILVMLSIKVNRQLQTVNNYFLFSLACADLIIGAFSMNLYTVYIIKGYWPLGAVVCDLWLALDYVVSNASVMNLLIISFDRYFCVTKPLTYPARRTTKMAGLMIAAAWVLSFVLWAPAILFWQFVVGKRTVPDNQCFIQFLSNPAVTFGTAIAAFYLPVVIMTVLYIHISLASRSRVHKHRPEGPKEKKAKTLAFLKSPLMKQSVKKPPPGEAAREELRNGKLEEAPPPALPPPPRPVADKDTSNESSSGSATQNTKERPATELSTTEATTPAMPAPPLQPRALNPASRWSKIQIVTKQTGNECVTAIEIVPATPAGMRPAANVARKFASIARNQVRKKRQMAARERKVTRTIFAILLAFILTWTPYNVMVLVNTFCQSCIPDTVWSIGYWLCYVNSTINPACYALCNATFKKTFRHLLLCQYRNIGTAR
Test: mAChR M4 cell-based functional assay (calcium flux, antagonism of EC80 acetylcholine response)
Settings: M4/Gqi5/CHO-K1 cells; for remaining activity at 30 µM: CHO-K1, % ACh maximum at 30 μM, read-out: Human M4 Emin; for IC50: decrease of response elicited by EC80 acetylcholine
Procedure: Human or rat M4 cDNA, along with the chimeric G protein Gqi5, were transfected into Chinese hamster ovary (CHO-K1) cells purchased from the American Type Culture Collection using Lipofectamine2000. M4/Gqi5/CHO cells were grown in Ham's F-12 medium containing 10% heat-inactivated fetal bovine serum (FBS), 20 mM HEPES, 500 μg/mL G418 sulfate, and 200 μg/mL Hygromycin B.
For high throughput measurement of agonist-evoked increases in intracellular calcium, CHO-K1 cells stably expressing muscarinic receptors were plated in growth medium lacking G418 and hygromycin at 15,000 cells/20 μL/well in Greiner 384-well black-walled, tissue culture (TC)-treated, clear-bottom plates (VWR). Cells were incubated overnight at 37° C. and 5% CO2. The next day, cells were washed using an ELX 405 (BioTek) with assay buffer; the final volume was then aspirated to 20 μL. Next, 20 μL of a 2.3 μM stock of Fluo-4/acetoxymethyl ester (Invitrogen, Carlsbad, Calif.), prepared as a 2.3 mM stock in DMSO and mixed in a 1:1 ratio with 10% (w/v) Pluronic F-127 and diluted in assay buffer, was added to the wells and the cell plates were incubated for 50 min at 37° C. and 5% CO2. Dye was removed by washing with the ELX 405 and the final volume was aspirated to 20 μL. Compound master plates were formatted in a 10 point concentration-response curve (CRC) format (1:3 dilutions) in 100% DMSO with a starting concentration of 10 or 1 mM using a BRAVO liquid handler (Agilent). Test compound CRCs were then transferred to daughter plates (240 nL) using the Echo acoustic plate reformatter (Labcyte, Sunnyvale, Calif.) and then diluted into assay buffer (40 μL) to a 2× stock using a Thermo Fisher Combi (Thermo Fisher Scientific, Waltham, Mass.).
Calcium flux was measured using the Functional Drug Screening System (FDSS) 6000 or 7000 (Hamamatsu Corporation, Tokyo, Japan) as an increase in the fluorescent static ratio. Compounds were applied to cells (20 μL, 2×) using the automated system of the FDSS at 2 seconds into the protocol and the data were collected at 1 Hz. At 143 s, 10 μL of an EC20 concentration of the muscarinic receptor agonist acetylcholine was added (5×), followed by the addition of 12 μL of an EC80 concentration of acetylcholine at the 268 s time point (5×). Agonist activity was analyzed as a concentration-dependent increase in calcium mobilization upon compound addition. Positive allosteric modulator activity was analyzed as a concentration-dependent increase in the EC20 acetylcholine response. Antagonist activity was analyzed as a concentration-dependent decrease in the EC80 acetylcholine response; for the purposes of the tables herein, an IC50 (inhibitory concentration 50) was calculated as a concentration-dependent decrease of the response elicited by an EC80 concentration of acetylcholine. Concentration-response curves were generated using a four-parameter logistical equation in XLFit curve fitting software (IDBS, Bridgewater, N.J.) for Excel (Microsoft, Redmond, Wash.) or Prism (GraphPad Software, Inc., San Diego, Calif.) or the Dotmatics software platform (Dotmatics, Bishop's Stortford, UK).
Compounds were synthesized as described above. Activity (IC50 and Emin) was determined in the mAChR M4 cell-based functional assay as described above and the data are shown in Table 2.

SMILES	remaining activity at 30 µM	IC50
[2H]C([2H])(C1CCOCC1)N1C[C@H]2C[C@H](Nc3cc(C4(C(F)(F)F)CC4)c(-c4cc(F)cc(F)c4F)nn3)C[C@H]2C1 [compound 39, (3aR,5s,6aS)-2-((tetrahydro-2H-pyran-4-yl)methyl-d2)-N-(5-(1-(trifluoromethyl)cyclopropyl)-6-(2,3,5-trifluorophenyl)pyridazin-3-yl)octahydrocyclopenta[c]pyrrol-5-amine]	3%	17.9 nM
Cc1c(Cl)nnc(N[C@H]2C[C@@H]3CN(CC4CCOCC4)C[C@@H]3C2)c1C#N [compound 65, 6-chloro-5-methyl-3-(((3aR,5s,6aS)-2-((tetrahydro-2H-pyran-4-yl)methyl)octahydrocyclopenta[c]pyrrol-5-yl)amino)pyridazine-4-carbonitrile]	8%	2930 nM
[2H]C([2H])(C1CCOCC1)N1C[C@H]2C[C@H](Nc3nnc(-c4cc(F)cc(F)c4F)cc3C(F)F)C[C@H]2C1 [compound 88, (3aR,5s,6aS)-N-(4-(difluoromethyl)-6-(2,3,5-trifluorophenyl)pyridazin-3-yl)-2-((tetrahydro-2H-pyran-4-yl)methyl-d2)octahydrocyclopenta[c]pyrrol-5-amine]	3%	10 nM
[2H]C([2H])(C1CCOCC1)N1C[C@H]2C[C@H](Nc3nnc(N4CCC(F)(F)CC4)cc3C3CCC3)C[C@H]2C1 [compound 29, (3aR,5s,6aS)-N-(4-cyclobutyl-6-(4,4-difluoropiperidin-1-yl)pyridazin-3-yl)-2-((tetrahydro-2H-pyran-4-yl)methyl-d2)octahydrocyclopenta[c]pyrrol-5-amine]	2%	60.7 nM
[2H]C([2H])(C1CCOCC1)N1C[C@H]2C[C@H](Nc3nnc(-c4cc(F)cc(F)c4F)cc3C(C)(F)F)C[C@H]2C1 [compound 45, (3aR,5s,6aS)-N-(4-(1,1-difluoroethyl)-6-(2,3,5-trifluorophenyl)pyridazin-3-yl)-2-((tetrahydro-2H-pyran-4-yl)methyl-d2)octahydrocyclopenta[c]pyrrol-5-amine]	3%	54.4 nM
CC(c1ccccn1)N1C[C@H]2C[C@H](Nc3cc(C(F)F)c(-c4cc(F)cc(F)c4F)nn3)C[C@H]2C1 (stereo partly drawn) [compound 50, (3aR,5s,6aS)-N-(5-(difluoromethyl)-6-(2,3,5-trifluorophenyl)pyridazin-3-yl)-2-(1-(pyridin-2-yl)ethyl)octahydrocyclopenta[c]pyrrol-5-amine]	2%	34.8 nM
COc1ccc(F)cc1-c1cc(C(F)F)c(N[C@H]2C[C@@H]3CN(CC4CCOCC4)C[C@@H]3C2)nn1 [compound 85, (3aR,5s,6aS)-N-(4-(difluoromethyl)-6-(5-fluoro-2-methoxyphenyl)pyridazin-3-yl)-2-((tetrahydro-2H-pyran-4-yl)methyl)octahydrocyclopenta[c]pyrrol-5-amine]	4%	11 nM

Molecules with a lower IC50, results first:

remaining activity at 30 µM	IC50	SMILES
3%	4.9 nM	Fc1ccc(C(F)(F)F)c(-c2cc(C(F)F)c(N[C@H]3C[C@@H]4CN(CC5CCOCC5)C[C@@H]4C3)nn2)c1 [compound 87, (3aR,5s,6aS)-N-(4-(difluoromethyl)-6-(5-fluoro-2-(trifluoromethyl)phenyl)pyridazin-3-yl)-2-((tetrahydro-2H-pyran-4-yl)methyl)octahydrocyclopenta[c]pyrrol-5-amine]
4%	3.43 nM	Cc1c(-c2ccc(F)cc2)nnc(N[C@H]2C[C@@H]3CN(CC4CCOCC4)C[C@@H]3C2)c1C#N [compound 73, 6-(4-fluorophenyl)-5-methyl-3-(((3aR,5s,6aS)-2-((tetrahydro-2H-pyran-4-yl)methyl)octahydrocyclopenta[c]pyrrol-5-yl)amino)pyridazine-4-carbonitrile]
3%	1.68 nM	[2H]C([2H])(C1CCOCC1)N1C[C@H]2C[C@H](Nc3nnc(-c4cc(F)ccc4F)cc3C(F)F)C[C@H]2C1 [compound 25, (3aR,5s,6aS)-N-(4-(difluoromethyl)-6-(2,5-difluorophenyl)pyridazin-3-yl)-2-((tetrahydro-2H-pyran-4-yl)methyl-d2)octahydrocyclopenta[c]pyrrol-5-amine]
2%	1.3 nM	Fc1cc(F)c(F)c(-c2nnc(N[C@H]3C[C@@H]4CN(CC5CCCOC5)C[C@@H]4C3)cc2C(F)F)c1 (single isomer, unassigned) [compound 48]
3%	0.97 nM	Cc1c(-c2ccccc2F)nnc(N[C@H]2C[C@@H]3CN(CC4CCOCC4)C[C@@H]3C2)c1C#N [compound 68, 6-(2-fluorophenyl)-5-methyl-3-(((3aR,5s,6aS)-2-((tetrahydro-2H-pyran-4-yl)methyl)octahydrocyclopenta[c]pyrrol-5-yl)amino)pyridazine-4-carbonitrile]
2%	0.92 nM	[2H]C([2H])(C1CCOCC1)N1C[C@H]2C[C@H](Nc3nnc(-c4cc(F)ccc4C)c(C)c3C)C[C@H]2C1 [compound 63, (3aR,5s,6aS)-N-(6-(5-fluoro-2-methylphenyl)-4,5-dimethylpyridazin-3-yl)-2-((tetrahydro-2H-pyran-4-yl)methyl-d2)octahydrocyclopenta[c]pyrrol-5-amine]
3%	0.69 nM	[2H]C([2H])(C1CCOCC1)N1C[C@H]2C[C@H](Nc3cc(C)c(-c4cc(F)cc(F)c4F)nn3)C[C@H]2C1 [compound 37, (3aR,5s,6aS)-N-(5-methyl-6-(2,3,5-trifluorophenyl)pyridazin-3-yl)-2-((tetrahydro-2H-pyran-4-yl)methyl-d2)octahydrocyclopenta[c]pyrrol-5-amine]
2%	0.66 nM	[2H]C([2H])(C1CCOCC1)N1C[C@H]2C[C@H](Nc3nnc(-c4cc(F)ccc4F)c(C)c3C)C[C@H]2C1 [compound 60, (3aR,5s,6aS)-N-(6-(2,5-difluorophenyl)-4,5-dimethylpyridazin-3-yl)-2-((tetrahydro-2H-pyran-4-yl)methyl-d2)octahydrocyclopenta[c]pyrrol-5-amine]
3%	0.58 nM	[2H]C([2H])(C1CCOCC1)N1C[C@H]2C[C@H](Nc3cc(C)c(-c4cc(F)ccc4F)nn3)C[C@H]2C1 [compound 17, (3aR,5s,6aS)-N-(6-(2,5-difluorophenyl)-5-methylpyridazin-3-yl)-2-((tetrahydro-2H-pyran-4-yl)methyl-d2)octahydrocyclopenta[c]pyrrol-5-amine]
3%	0.44 nM	[2H]C([2H])(C1CCOCC1)N1C[C@H]2C[C@H](Nc3cc(C)c(-c4cc(F)ccc4Cl)nn3)C[C@H]2C1 [compound 18, (3aR,5s,6aS)-N-(6-(2-chloro-5-fluorophenyl)-5-methylpyridazin-3-yl)-2-((tetrahydro-2H-pyran-4-yl)methyl-d2)octahydrocyclopenta[c]pyrrol-5-amine]
